{"source": "paper PMC10518255", "about": "“A first-in-class pan-lysyl oxidase inhibitor impairs stromal remodeling and enhances gemcitabine response and survival in pancreatic cancer” (Nature Cancer, 2023)", "tested_on": "KPC CCs liver colonization", "test": "Intrasplenic model of liver colonization, early administration of treatment", "assay_type": "in vivo, mouse", "details": "for metastases/mm2: early administration, individual animals; for number of metastatic foci in liver / size of metastatic foci in liver: treatment from day 1 until day 10", "experimental": "Fig. 5 PXS-5505 administered in intrasplenic models of liver colonization. a, Schematic of the intrasplenic model of liver colonization with early administration of treatment. CCs were implanted into the spleen of BALB/c-Fox1nuAusb mice under anesthesia on day 0. Treatment with 0.9% saline (vehicle); twice-weekly Gem (100 mg kg^−1 i.p.) (Gem); daily PXS-5505 at 20 mg kg^−1 i.p. (PXS-5505) or daily PXS-5505 at 20 mg kg^−1 i.p. + twice-weekly Gem at 100 mg kg^−1 i.p. (PXS-5505 + Gem) was administered from day 1. At the end point (day 10) livers were collected and H&E-stained for scoring. Representative images of H&E-stained liver (taken from one biologically independent animal). Scale bar, 100 μm. b, Representative images of H&E-stained livers from each treatment group (n = 1 FOV taken from one biologically independent animal per group). Scale bars, 100 μm. c, Quantification of metastases per mm^2 (n = 9 biologically independent animals per group). Data are mean ± s.d. […] Data are mean ± s.d. Two-tailed P values were determined by an unpaired, nonparametric t-test with a Mann–Whitney U-test correction (comparison between two groups). e, Schematic of intrasplenic model of liver colonization with late administration of treatment. CCs were implanted into the spleen of BALB/c-Fox1nuAusb mice under anesthesia on day 0. Treatment with 0.9% saline (vehicle); twice-weekly Gem (100 mg kg^−1 i.p.) (Gem); daily PXS-5505 at 20 mg kg^−1 i.p. (PXS-5505); or daily PXS-5505 at 20 mg kg^−1 i.p. + three doses of Gem (100 mg kg^−1 i.p. (PXS-5505 + Gem) was administered from day 4. Representative images of H&E-stained liver (taken from one biologically independent animal). Scale bar, 100 μm. f, Quantification of metastases at endpoint (n = 10 biologically independent animals per treatment group, n = 5 biologically independent animals at day 4 for confirmation of overt metastases). Data are mean ± s.d. P values were determined by an unpaired, nonparametric t-test with a Mann–Whitney U-test correction (comparison between two groups). g, Representative images of H&E-stained livers from each treatment group. Scale bars, 100 μm. Source data\nFor the intrasplenic models, animals were randomized before receiving treatment. GLP-grade PXS-5505 (20 mg kg^−1) was administered daily i.p. (starting day 0 for the early stage and day 4 for the late stage) until the end point and gemcitabine (100 mg kg^−1) was administered on days 3, 6 and 9 for the early stage and days 5, 7 and 10 for the late stage.\nKPC CCs (5 × 10^5 cells per mouse in 50 μl Hanks balanced saline solution) were slowly injected into the spleens of 8-week-old female BALB/c-Fox1nuAusb mice under anesthesia (isoflurane […], O2 1 l min^−1 with vacuum) as previous described. For the duration of the study mice were kept in conventional caging with environmental enrichment, access to standard chow, water ad libitum and 12-h light–dark cycle at ambient temperature and humidity. For intrasplenic studies, mice were culled at defined end points (10 d for early colonization studies and 11 d for late colonization studies). Animals with non-tumor-related complications that led to a premature end point were censored. At the end point, mice were imaged by whole-body bioluminescent imaging using an IVIS Spectrum (Caliper LS), culled and livers were removed for additional bioluminescent imaging before formalin fixing and paraffin embedding.\nThe 4-µm formalin-fixed paraffin-embedded (FFPE) sections were cut and stained for H&E following standard histopathology methodologies or stained for CK19 using the Bond RX H2(30) protocol detailed above. Whole liver sections were then digitized on an Aperio slide scanner for blinded analysis. The total number of liver metastases were quantified and determined using QuPath[57].", "note": "“And” between values parts separate entries of the source, which are not always exact repeats. Identical values can stand only once.", "data": [{"smiles": "Nc1ccn([C@@H]2O[C@H](CO)[C@@H](O)C2(F)F)c(=O)n1", "note": "[Gem, gemcitabine]", "values": [{"measurement": "metastases/mm2", "value": "1.138e-5 /mm2 and 9.508e-5 /mm2 and 3.779e-5 /mm2 and 0 /mm2 and 1.36e-5 /mm2 and 7.872e-6 /mm2 and 6.17e-6 /mm2"}, {"measurement": "number of metastatic foci in liver", "value": "fewer"}, {"measurement": "size of metastatic foci in liver", "value": "smaller"}]}, {"smiles": "Cl.Cl.NC/C=C(\\F)CS(=O)(=O)c1cccc2cccnc12.O", "note": "[PXS-5505, (Z)-3-fluoro-4-(quinolin-8-ylsulfonyl)but-2-en-1-amine dihydrochloride monohydrate]", "values": [{"measurement": "metastases/mm2", "value": "0.0002211 /mm2 and 8.732e-6 /mm2 and 2.758e-6 /mm2 and 0.0001431 /mm2 and 0.0002677 /mm2 and 0.0002826 /mm2 and 0.0003511 /mm2 and 0.0007717 /mm2 and 3.2079e-5 /mm2"}, {"measurement": "number of metastatic foci in liver", "value": "small decrease in number"}, {"measurement": "size of metastatic foci in liver", "value": "not size of metastatic foci"}]}]}
